Measured values: patent publication US20260027380A1, “TECHNIQUES FOR MAGNETIC NANOCLUSTER-BASED COMBINATION THERAPY” (William Marsh Rice University, priority 2022, published 2026)

Key:
subcutaneous MC-38 tumor = assay: Tumor killing effect in vivo, subcutaneous MC-38 mouse tumor model; set-up: species or system C57BL/6N mice
Description: The antitumor activity of IONC-AAPH in vivo was evaluated with a subcutaneous MC-38 mouse tumor model. The subcutaneous tumor was induced by inoculating MC-38 cells into the right flank of respective C57BL/6N mice. The mice were randomly divided into 6 groups (n=3): (i) saline, (ii) AAPH, (iii) IONC, (iv) IONC-AAPH, (v) IONC+AMF, and (vi) IONC-AAPH+AMF. When the tumor volume reached 150-200 mm^3, the mice were intratumorally injected with saline, AAPH (2 mM), IONC (5 mg Fe/mL), and IONC-AAPH (5 mg Fe/mL), respectively. After injection the mice in IONC+AMF and IONC-AAPH+AMF groups were subjected to AMF for 1 h. The temperature of the tumors injected with IONC or IONC-AAPH increased rapidly and reached above 45° C. within 5 min, as measured by an infrared thermal camera.
After applying AMF, the temperature in the tumor was much higher than in other parts of the body. […]
Tumor killing effect of IONC-AAPH in vivo: All animal work was approved by the Institutional Animal Care and Use Committee (IACUC) of Rice University. […] The direct tumor killing effect of IONC-AAPH treatment was evaluated with subcutaneous tumor-bearing mice. […] The temperature in the tumor was measured using a high-resolution infrared (IR) camera (E95, Teledyne FLIR). The tumor size was measured daily with a digital caliper, and the tumor volume was calculated as follow: volume=length×width^2/2. […]

MC-38 cells [1] = assay: Evaluation of F-actin morphology (phalloidin staining); assay type: cell-based, murine; details: without heating (no AMF)
Description: To examine the effect of heating and free radicals on the actin cytoskeleton, actin filaments (F-actin) were stained with fluorescent phalloidin. […] In cells subjected to heating and free radicals but still showing phalloidin staining, the actin filaments were further retracted and more condensed compared with cells under heating only. FIG. 8 illustrates a quantification of MC-38 cells with F-actin structure in the above-described morphological analysis. […] In the cells with phalloidin staining, the actin filaments were further retracted and more condensed compared with the hyperthermia only group.
Evaluation of F-actin morphology: The F-actin morphology of MC-38 cells was evaluated by phalloidin staining. MC-38 cells were seeded in 4-compartment cell culture dishes and cultured overnight. The cells were then treated with 300 μg Fe/mL of IONC-AAPH or IONC at 37° C. or under AMF for 90 min. Four hours after the treatment, the cells were fixed, permeabilized, and blocked as described above. Then the cells were incubated with Alexa Fluor 568-labeled phalloidin for 30 min at room temperature, followed by staining with Hoechst 33342 for 10 min at room temperature. Images were collected using a Nikon Al-Rsi confocal microscope.

MC-38 cells [2] = assay: Mitochondrial membrane potential (JC-1 staining); assay type: cell-based, murine; details: without AMF
Description: JC-1 dye was used to examine the effect of heat and free radical generation by IONC-AAPH on mitochondria. JC-1 dye is an indicator of mitochondrial membrane potential (MMP). In healthy cells with high MMP, JC-1 accumulates in the mitochondria and forms J-aggregates, which emit red fluorescence. In contrast, apoptotic cells with low MMP, JC-1 diffuses in the cytoplasm and remains as J-monomers, which give green fluorescence. A decrease in J-aggregates to J-monomers ratio indicates MMP loss (i.e., mitochondrial depolarizations). […] The J-aggregates to J-monomers ratios quantified using flow cytometry confirmed the significant MMP loss due to heat and free radicals, as illustrated in FIGS. 9 (depicting results of flow cytometry analysis of mitochondrial membrane potential of MC-38 cells 4 h after treatment by JC-1 staining) and 10 (depicting quantification of the J-aggregate to J-monomer ratio using the mean fluorescence detected by flow cytometry in FIG. 9).
Determination of mitochondrial health: The mitochondrial membrane potential of MC-38 cells was determined with JC-1 staining assay. […] After staining, the cells were imaged with a confocal microscope (Nikon A1-Rsi confocal) or analyzed on a flow cytometer (BD Accuri C6 Plus). The ratio of J-aggregates to J-monomers was calculated using the red and green fluorescence intensity measured by flow cytometry.

SMILES: CC(C)(N=NC(C)(C)C(=N)N)C(=N)N.Cl.Cl [AAPH, 2,2′-azobis(2-amidinopropane) dihydrochloride]
- tumor tissue damage (H&E, TUNEL) (subcutaneous MC-38 tumor; without AMF): no tumor tissue damage
- tumor weight (subcutaneous MC-38 tumor; without applying AMF): only slightly reduced the tumor weight
- F-actin morphology (MC-38 cells [1]): well organized and elongated
- JC-1 state (mitochondrial membrane potential) (MC-38 cells [2]): J-aggregates were formed
